Target: T1, Alpha-1B adrenergic receptor (Homo sapiens, UniProt P35368)
T1 sequence (P35368 whole entry): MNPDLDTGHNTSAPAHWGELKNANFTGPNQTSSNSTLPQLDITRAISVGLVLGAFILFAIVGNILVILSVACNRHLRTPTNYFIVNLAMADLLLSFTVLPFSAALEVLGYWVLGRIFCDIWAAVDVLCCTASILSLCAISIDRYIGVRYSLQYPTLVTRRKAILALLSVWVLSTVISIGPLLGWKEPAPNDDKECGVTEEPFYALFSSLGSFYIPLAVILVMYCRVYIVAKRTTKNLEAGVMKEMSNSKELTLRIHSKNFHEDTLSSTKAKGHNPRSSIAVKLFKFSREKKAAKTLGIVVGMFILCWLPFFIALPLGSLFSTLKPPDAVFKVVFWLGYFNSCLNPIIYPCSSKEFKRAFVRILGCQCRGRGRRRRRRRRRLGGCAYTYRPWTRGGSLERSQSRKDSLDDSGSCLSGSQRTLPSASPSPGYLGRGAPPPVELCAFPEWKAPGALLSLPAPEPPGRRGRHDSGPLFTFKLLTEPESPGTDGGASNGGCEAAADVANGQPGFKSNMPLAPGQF
Assay: Binding affinity towards human Alpha-1B adrenergic receptor by the displacement of [3H]prazosin

| Structure (SMILES) | Ki |
| --- | --- |
| C1COC(N2CCOCC2)=N1 | 1000 µM |
| c1ccc2c(c1)CCCC2NC1=NCCCO1 (stereo unspecified) | 6.76 µM |
| c1ccc2c(c1)CCCC2NC1=NCCO1 (stereo unspecified) | 2.45 µM |

Other lines, results leading:

| Ki | Structure (SMILES) |
| --- | --- |
| 21.4 µM | C1COC(NC(C2CC2)C2CC2)=N1 [CHEBI:8862] |
| 3.98 µM | CCC[C@H]1CCCCC1NC1=NCCO1 (stereo partly specified) |
| 28.2 µM | C1CCCC(NC2=NCCO2)CC1 |
